Measurements published in US20020120098A1, “Enhanced stimulation of erythropoiesis” (priority 1996, published 2002).
“Also recorded” adds a separate entry of the source.

Key:
Type in all cases: cell-based, human
[1] = system: total erythroid progenitors (BFU-E+CFU-E); experiment: Inhibition of succinylacetone (SA) toxicity to erythroid progenitors in CFA; conditions: 0.5 mM SA; 100 μM hemin, 15.6 μM HAo or HEMOLINK, 250 μM FeCl3; ambient O2, 14 days
Experimental: The effect of the various additives on the inhibitory effect of succinylacetone (SA), a heme synthesis inhibitor, on erythroid progenitors was determined. Primary LDMNC were cultured in methyl cellulose as described in Example 1. Cord blood LDMN were plated in the presence of 1.0 mg/ml HAo (15.6 μM; n=12) or HEMOLINK™ (15.6 μM; n=5), 100 μM hemin (n=12), 250 μM FeCl3 (n=11) or no addition (n=12), in absence or presence of 0.5 mM SA. Cultures were maintained in a humidified chamber at 37° C., 5% CO2, and ambient oxygen tensions for 14 days.
Results are expressed as the number of total erythroid progenitors (BFU-E+CFU-E) present on plates treated with the various additives in the presence of SA relative to the number present on untreated plates (no SA or other addition). Significant differences in the presence of the respective additives compared to no addition (SA only; relative progenitor number=0.31) are as indicated: *p<0.001, **p<0.0001. Significant differences in the presence of the respective additives compared to no treatment (no SA; solid line at relative erythroid progenitor number=1.0) are as indicated: +p<0.05, ++p<0.001.

erythroid progenitors = experiment: Colony formation assay, adult peripheral blood LDMNC: erythroid progenitors overall; conditions: for growth of erythroid progenitors in the absence of Epo, adult blood: 0 U/ml Epo; for erythroid progenitor number, adult blood, 5% O2 and 0.2 U/ml Epo (in words): 5% O2, 0.2 U/ml Epo, over untreated controls under the same conditions
Experimental: (§1) Blood was collected with informed consent from the antecubital vein of healthy adult human volunteers into vacutainers containing 143 USP U/ml sodium heparin. Low density mononuclear cells (LDMNC) were isolated by centrifugation over a density gradient as described in Example 1. Plastic adherent cells were removed by an overnight incubation in a tissue culture flask and the non-adherent cells were placed directly in a CFA. Conditions for the CFA are similar to those described in Examples 1-4.
(§2) Mean fold increase in adult blood BFU-E, CFU-E and CFU-GM progenitor number in the presence of reduced Epo (0.2 U/ml) (n=3) at 20% O2 is shown in FIG. 11 with and without (no addition) the additives used in FIG. 9. Results are expressed relative to control cells at 2 U/ml Epo treated only with the respective vehicles (solid line at fold expansion=1.0). […] As with cord blood, CFU-GM numbers were unaffected by reductions in Epo. The addition of HAo or HEMOLINK™ to CFAs containing 0.2 U/ml Epo stimulated ˜4.5- and ˜3.5-fold increases in BFU-E and CFU-E, respectively, compared to untreated controls (no addition), restoring the progenitor number to that obtained at 2 U/ml Epo. Hemin stimulated the greatest increase in BFU-E and CFU-E (˜9- and ˜6-fold, respectively) at 0.2 U/ml Epo versus the untreated controls (no addition). FeCl3 stimulated only a ˜2-fold increase in erythroid progenitor number at 0.2 U/ml Epo.
(§3) Mean fold increase in adult blood BFU-E, CFU-E and CFU-GM progenitor number at 5% O2 in the presence of reduced Epo (0.2 U/ml) (n=3) is shown in FIG. 12 with and without the additives used in FIG. 9. Results are expressed relative to control cells at 2 U/ml Epo treated only with the respective vehicles and cultured at ambient oxygen tensions (˜20% O2) for 14 days (solid line at fold expansion=1.0). The number of erythroid progenitors stimulated at 5% O2 and 0.2 U/ml Epo was similar to that obtained with 2.0 U/ml Epo maintained at ambient oxygen tensions (no addition).

CFU-E [2] = experiment: Colony formation assay (CFA), cord blood LDMNC: CFU-E colonies; conditions: 5% O2, 0.2 U/ml Epo; 100 μM hemin, 1.0 mg/ml HAo or HEMOLINK; relative to controls at 2 U/ml Epo, ambient O2
CFU-E [3] = experiment: Colony formation assay, adult peripheral blood LDMNC: CFU-E; conditions: for fold increase in CFU-E, adult blood, 0.2 U/ml Epo: ~20% O2, compared to untreated controls (no addition) at 0.2 U/ml Epo; for increase in number of CFU-E progenitors, adult blood, ambient O2 (in words): 2 U/ml Epo
Experimental: as §1
The mean fold increase in adult blood BFU-E, CFU-E and CFU-GM progenitor number produced by 1.0 mg/ml HAo (15.6 μM) or HEMOLINK™ (15.6 μM), 100 μM hemin or 250 μM FeCl3 is shown in FIG. 9 (n=3). Cultures were maintained at ambient oxygen tensions (˜20% O2) for 14 days. The fold increase in colonies is expressed relative to control cells treated only with the respective vehicles. […] The magnitude of this increase was greater for adult than cord blood LDMNC.
The mean fold increase in adult blood BFU-E, CFU-E and CFU-GM progenitor number at 5% O2 is shown in FIG. 10 with the same additives. Results are expressed relative to control cells treated only with the respective vehicles and cultured at ambient oxygen tensions (˜20% O2). Reduced oxygen tensions (5% O)2 enhanced the growth of BFU-E which was further increased by the addition of HAo, HEMOLINK™, hemin or FeCl3. All agents stimulated a similar increase in BFU-E number (˜9-11-fold) at 5% O2 compared to untreated control cells at ambient oxygen tensions.
as §2, §3

Row | Compound | reversal of inhibitory effect of SA on erythroid progenitors (in words) [1] | growth of erythroid progenitors in the absence of Epo, adult blood (erythroid progenitors) | fold increase in erythroid progenitor number, adult blood, 0.2 U/ml Epo (erythroid progenitors; 0.2 U/ml Epo, ~20% O2, 250 μM FeCl3) [fold] | fold increase in CFU-E at 0.2 U/ml Epo and 5% O2 (CFU-E [2]) [fold] | fold increase in CFU-E, adult blood, 0.2 U/ml Epo (CFU-E [3]) [fold] | increase in number of CFU-E progenitors, adult blood, ambient O2 (in words) (CFU-E [3]) | erythroid progenitor number, adult blood, 5% O2 and 0.2 U/ml Epo (in words) (erythroid progenitors)
1 | [Cl][Fe]([Cl])[Cl] [FeCl3] | less effective than lower concentrations of hemoglobin; also recorded: unable to overcome the inhibitory effect of SA | could not support the growth of erythroid progenitors in the absence of Epo | ~2 | – | – | – | –
2 | HEMOLINK™: chemically crosslinked hemoglobin prepared by treating human hemoglobin with a polyaldehyde (O-raffinose) | unable to fully restore erythroid progenitor numbers | could not support the growth of erythroid progenitors in the absence of Epo | – | 1.7 | ~3.5 | slight increases | stimulated further increases in erythroid progenitor number
3 | C=CC1=C(C)C2=Cc3c(C=C)c(C)c4[n]3[Fe-2]35([Cl])[n]6c(c(C)c(CCC(=O)O)c6=CC6=[N+]3C(=C4)C(C)=C6CCC(=O)O)=CC1=[N+]25 [hemin] | able to completely overcome the SA inhibition of erythroid colonies; also recorded: able to overcome the inhibitory effect of SA | could not support the growth of erythroid progenitors in the absence of Epo | – | 3.2 | ~6 | slight increases | stimulated further increases in erythroid progenitor number
4 | HAo: adult human hemoglobin obtained from red blood cells and purified by displacement chromatography; uncross linked product | partially able to overcome the inhibitory effect of SA; also recorded: could partially reverse the SA toxicity | could not support the growth of erythroid progenitors in the absence of Epo | – | 2.1 | ~3.5 | slight increases | stimulated further increases in erythroid progenitor number
